Results taken from patent US12258328B2, “6-membered heteroaryl-containing aminopyridine compounds as EGFR inhibitors” (YUHAN CORPORATION, priority 2021, dated 2025).
Where two headings read alike, the source gives them in different places.

Tests used:
[1] = target: EGFR del19/C797S (Homo sapiens, UniProt P00533, C797S/DEL746-750); experiment: Biochemical EGFR kinase assay (Lance Ultra TR-FRET), double mutant del19/C797S
Summary of the method: (§1)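 Step 1: compound in kinase buffer, 0.003–10 μM. Step 2: kinase reaction 1 h at room temperature. Step 4: TR-FRET read at 615/665 nm; IC50 calculated.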

[2] = target: EGFR L858R/C797S (Homo sapiens, UniProt P00533, C797S/L858R); experiment: Biochemical EGFR kinase assay (Lance Ultra TR-FRET), double mutant L858R/C797S
EGFR L858R/C797S, sequence (P00533 25-1210 C797S/L858R): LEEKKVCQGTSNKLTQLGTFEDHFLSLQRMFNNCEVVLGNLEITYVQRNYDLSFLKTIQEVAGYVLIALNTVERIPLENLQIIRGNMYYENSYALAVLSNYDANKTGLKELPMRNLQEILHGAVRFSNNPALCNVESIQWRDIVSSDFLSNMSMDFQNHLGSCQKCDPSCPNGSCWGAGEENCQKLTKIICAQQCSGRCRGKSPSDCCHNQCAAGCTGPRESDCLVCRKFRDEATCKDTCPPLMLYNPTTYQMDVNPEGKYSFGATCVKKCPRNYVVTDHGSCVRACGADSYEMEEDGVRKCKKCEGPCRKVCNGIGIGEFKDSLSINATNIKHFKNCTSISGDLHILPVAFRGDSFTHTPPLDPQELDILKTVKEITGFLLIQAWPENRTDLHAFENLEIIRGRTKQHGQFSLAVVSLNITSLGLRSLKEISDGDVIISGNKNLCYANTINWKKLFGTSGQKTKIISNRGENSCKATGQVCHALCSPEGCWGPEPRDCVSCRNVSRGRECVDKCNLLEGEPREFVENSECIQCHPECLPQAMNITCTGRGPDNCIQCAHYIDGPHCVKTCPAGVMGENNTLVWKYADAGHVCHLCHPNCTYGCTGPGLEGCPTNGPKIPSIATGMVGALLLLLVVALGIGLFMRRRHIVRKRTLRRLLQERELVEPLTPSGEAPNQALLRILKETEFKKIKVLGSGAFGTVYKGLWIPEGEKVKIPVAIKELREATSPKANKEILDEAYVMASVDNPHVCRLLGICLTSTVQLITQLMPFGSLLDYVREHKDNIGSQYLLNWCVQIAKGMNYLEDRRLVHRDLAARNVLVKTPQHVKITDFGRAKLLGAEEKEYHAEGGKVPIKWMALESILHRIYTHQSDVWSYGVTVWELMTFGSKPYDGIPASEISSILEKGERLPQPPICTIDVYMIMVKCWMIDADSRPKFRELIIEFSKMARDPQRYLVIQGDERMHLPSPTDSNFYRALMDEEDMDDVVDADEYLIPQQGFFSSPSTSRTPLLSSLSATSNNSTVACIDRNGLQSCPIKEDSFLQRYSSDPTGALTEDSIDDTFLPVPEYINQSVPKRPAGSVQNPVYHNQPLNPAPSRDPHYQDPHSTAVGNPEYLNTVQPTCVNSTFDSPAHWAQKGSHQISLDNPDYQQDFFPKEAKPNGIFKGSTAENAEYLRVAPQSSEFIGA
Summary of the method: as §1

[3] = target: EGFR L858R/T790M/C797S (Homo sapiens, UniProt P00533, C797S/L858R/T790M); experiment: Biochemical EGFR kinase assay (Lance Ultra TR-FRET), triple mutant L858R/T790M/C797S
EGFR L858R/T790M/C797S, sequence (P00533 25-1210 T790M/C797S/L858R): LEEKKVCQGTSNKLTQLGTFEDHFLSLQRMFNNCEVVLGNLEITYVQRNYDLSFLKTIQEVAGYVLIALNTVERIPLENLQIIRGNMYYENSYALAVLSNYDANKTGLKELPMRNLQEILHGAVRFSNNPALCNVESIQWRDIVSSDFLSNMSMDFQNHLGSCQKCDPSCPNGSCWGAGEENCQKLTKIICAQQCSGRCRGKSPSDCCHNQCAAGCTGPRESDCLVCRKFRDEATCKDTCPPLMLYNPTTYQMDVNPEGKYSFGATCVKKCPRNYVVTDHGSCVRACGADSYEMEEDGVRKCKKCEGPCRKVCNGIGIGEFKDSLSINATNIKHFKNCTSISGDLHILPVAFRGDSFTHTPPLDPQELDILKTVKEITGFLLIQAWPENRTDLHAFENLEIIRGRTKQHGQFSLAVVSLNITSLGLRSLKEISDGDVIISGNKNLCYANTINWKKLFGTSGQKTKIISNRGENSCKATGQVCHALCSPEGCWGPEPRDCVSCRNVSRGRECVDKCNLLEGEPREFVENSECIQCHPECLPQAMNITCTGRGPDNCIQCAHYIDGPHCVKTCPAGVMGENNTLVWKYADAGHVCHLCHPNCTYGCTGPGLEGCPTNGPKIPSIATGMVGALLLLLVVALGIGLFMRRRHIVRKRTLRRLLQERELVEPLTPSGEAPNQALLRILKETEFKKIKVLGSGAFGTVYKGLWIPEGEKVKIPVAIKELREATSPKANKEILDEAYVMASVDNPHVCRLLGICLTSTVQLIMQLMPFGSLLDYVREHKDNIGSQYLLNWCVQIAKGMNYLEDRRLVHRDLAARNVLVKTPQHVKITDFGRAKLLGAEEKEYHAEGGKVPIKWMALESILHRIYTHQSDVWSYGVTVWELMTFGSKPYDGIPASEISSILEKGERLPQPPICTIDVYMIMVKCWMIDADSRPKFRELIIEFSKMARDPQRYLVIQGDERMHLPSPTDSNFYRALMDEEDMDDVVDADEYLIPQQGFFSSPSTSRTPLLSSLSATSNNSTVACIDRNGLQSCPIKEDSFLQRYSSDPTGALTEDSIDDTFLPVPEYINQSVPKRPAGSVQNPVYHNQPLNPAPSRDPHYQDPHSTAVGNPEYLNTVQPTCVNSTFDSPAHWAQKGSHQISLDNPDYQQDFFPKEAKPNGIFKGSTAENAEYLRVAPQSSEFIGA
Summary of the method: as §1

[4] = target: EGFR wildtype (Homo sapiens, UniProt P00533); experiment: Biochemical EGFR kinase assay (Lance Ultra TR-FRET), wildtype
Summary of the method: as §1

[5] = target: EGFR del19/T790M/C797S (Homo sapiens, UniProt P00533, C797S/DEL746-750/T790M); experiment: Biochemical EGFR kinase assay (Lance Ultra TR-FRET), triple mutant del19/T790M/C797S
EGFR del19/T790M/C797S, sequence (P00533 with tags, fused parts or gaps DEL746-750/T790M/C797S): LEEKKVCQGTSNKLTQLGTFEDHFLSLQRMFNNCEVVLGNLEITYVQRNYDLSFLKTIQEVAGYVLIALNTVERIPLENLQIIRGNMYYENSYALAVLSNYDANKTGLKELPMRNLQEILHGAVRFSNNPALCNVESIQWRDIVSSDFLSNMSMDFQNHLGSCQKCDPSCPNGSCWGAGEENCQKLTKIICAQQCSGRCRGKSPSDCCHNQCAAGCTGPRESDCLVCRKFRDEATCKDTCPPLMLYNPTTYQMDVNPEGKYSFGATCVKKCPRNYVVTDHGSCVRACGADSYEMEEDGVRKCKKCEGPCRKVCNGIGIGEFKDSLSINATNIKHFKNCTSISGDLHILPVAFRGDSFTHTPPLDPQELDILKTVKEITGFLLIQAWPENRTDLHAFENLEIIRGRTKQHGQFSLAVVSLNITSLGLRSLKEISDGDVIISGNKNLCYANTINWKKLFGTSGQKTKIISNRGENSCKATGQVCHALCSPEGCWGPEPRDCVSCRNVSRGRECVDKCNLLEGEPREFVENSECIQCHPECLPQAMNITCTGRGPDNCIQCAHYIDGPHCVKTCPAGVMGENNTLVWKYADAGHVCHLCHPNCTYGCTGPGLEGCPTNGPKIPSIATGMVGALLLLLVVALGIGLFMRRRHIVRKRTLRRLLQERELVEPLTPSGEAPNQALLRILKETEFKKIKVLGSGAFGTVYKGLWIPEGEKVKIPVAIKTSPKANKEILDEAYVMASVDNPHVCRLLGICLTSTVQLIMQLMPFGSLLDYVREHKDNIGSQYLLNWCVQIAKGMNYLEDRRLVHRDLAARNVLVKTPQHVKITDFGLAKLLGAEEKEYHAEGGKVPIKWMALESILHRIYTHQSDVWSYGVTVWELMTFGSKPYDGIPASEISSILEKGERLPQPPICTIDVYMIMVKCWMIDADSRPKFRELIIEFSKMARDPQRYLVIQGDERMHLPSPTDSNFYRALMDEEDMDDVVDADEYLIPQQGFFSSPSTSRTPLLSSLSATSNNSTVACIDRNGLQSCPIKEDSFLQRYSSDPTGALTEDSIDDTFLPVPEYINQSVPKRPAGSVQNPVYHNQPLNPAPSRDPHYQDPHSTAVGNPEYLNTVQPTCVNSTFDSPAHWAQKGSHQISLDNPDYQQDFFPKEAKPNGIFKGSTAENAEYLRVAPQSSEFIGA
Summary of the method: as §1

[6] = ATP at Km, read-out: IC50 del19/C797S, Km ATP
[7] = ATP at Km, read-out: IC50 L858R/C797S, Km ATP
[8] = ATP at Km, read-out: IC50 L858R/T790M/C797S, Km ATP
[9] = ATP at Km, read-out: IC50 WT, Km ATP
[10] = ATP at Km, read-out: IC50 del19/T790M/C797S, Km ATP
[11] = Km ATP, read-out: IC50 del19/C797S (nM) Km ATP
[12] = Km ATP, read-out: IC50 L858R/C797S (nM) Km ATP
[13] = Km ATP, read-out: IC50 L858R/T790M/C797S (nM) Km ATP
[14] = Km ATP, read-out: IC50 WT (nM) Km ATP
[15] = Km ATP, read-out: IC50 del19/T790M/C797S (nM) Km ATP
[16] = IC50 del19/C797S (nM) 100 μM ATP, 100 μM ATP
[17] = IC50 L858R/C797S (nM) 100 μM ATP, 100 μM ATP
[18] = IC50 L858R/T790M/C797S (nM) 100 μM ATP, 100 μM ATP
[19] = IC50 WT (nM) 100 μM ATP, 100 μM ATP
[20] = IC50 del19/T790M/C797S (nM) 100 μM ATP, 100 μM ATP
[21] = IC50 L858R/T790M/C797S, 100 μM ATP
[22] = IC50 del19/T790M/C797S, 100 μM ATP

EGFR del19/C797S, sequence (P00533 with tags, fused parts or gaps DEL746-750/C797S): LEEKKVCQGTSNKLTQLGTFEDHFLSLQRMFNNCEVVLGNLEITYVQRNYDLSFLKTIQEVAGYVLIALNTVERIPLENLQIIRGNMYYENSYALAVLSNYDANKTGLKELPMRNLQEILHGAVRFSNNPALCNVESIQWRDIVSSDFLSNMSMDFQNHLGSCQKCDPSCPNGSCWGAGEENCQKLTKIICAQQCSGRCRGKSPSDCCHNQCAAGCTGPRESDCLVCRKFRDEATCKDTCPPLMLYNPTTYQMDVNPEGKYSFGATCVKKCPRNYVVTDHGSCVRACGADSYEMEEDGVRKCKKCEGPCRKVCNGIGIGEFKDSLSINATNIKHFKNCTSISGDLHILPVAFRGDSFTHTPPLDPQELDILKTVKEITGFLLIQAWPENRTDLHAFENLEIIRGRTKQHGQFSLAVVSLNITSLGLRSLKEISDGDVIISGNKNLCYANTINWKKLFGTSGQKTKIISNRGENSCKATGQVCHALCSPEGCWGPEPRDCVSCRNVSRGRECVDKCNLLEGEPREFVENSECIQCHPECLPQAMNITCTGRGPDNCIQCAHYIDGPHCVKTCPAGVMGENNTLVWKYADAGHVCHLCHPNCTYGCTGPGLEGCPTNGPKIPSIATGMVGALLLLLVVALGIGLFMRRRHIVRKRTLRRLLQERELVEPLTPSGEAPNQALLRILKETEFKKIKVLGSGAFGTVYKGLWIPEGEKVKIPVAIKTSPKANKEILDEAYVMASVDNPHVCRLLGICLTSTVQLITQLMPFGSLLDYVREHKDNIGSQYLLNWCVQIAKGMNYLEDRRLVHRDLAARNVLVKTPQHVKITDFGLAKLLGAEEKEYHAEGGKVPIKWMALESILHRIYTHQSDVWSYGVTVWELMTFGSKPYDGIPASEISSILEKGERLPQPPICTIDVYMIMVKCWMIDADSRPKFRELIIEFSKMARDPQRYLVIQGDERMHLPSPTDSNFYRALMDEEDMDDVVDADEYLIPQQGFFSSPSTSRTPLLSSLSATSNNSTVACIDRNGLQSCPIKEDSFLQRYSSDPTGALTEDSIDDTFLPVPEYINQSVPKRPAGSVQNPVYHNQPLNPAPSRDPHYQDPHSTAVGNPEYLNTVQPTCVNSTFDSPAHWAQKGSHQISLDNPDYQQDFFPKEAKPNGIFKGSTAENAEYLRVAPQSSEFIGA

Row | Compound | IC50 [1, 6] | IC50 [2, 7] | IC50 [3, 8] | IC50 [4, 9] | IC50 [5, 10] | IC50 [1, 16] | IC50 [2, 17] | IC50 [3, 18] | IC50 [4, 19] | IC50 [5, 20] | further results
1 | CC(C)(O)c1ccc(-c2cnc(Nc3ccnc(-c4cnn(S(=O)(=O)C5CC5)c4)n3)cc2N[C@H]2CC[C@@H](F)CC2)nc1 [Example 173, 2-(6′-((2-(1-(Cyclopropylsulfonyl)-1H-pyrazol-4-yl)pyrimidin-4-yl)amino)-4′-(((1s,4s)-4-fluorocyclohexyl)amino)-[2,3′-bipyridin]-5-yl)propan-2-ol] | 7.9 nM | 1.6 nM | 0.9 nM | 23.2 nM | 1.8 nM |  |  |  |  |  | 
2 | CN1CCC(Oc2ccc(-c3cnc(Nc4ccnc(-c5cnn(CC(F)F)c5)n4)cc3N[C@H]3CC[C@@H](F)CC3)nc2)CC1 [Example 133, N^6′-(2-(1-(2,2-Difluoroethyl)-1H-pyrazol-4-yl)pyrimidin-4-yl)-N^4′-((1s,4s)-4-fluorocyclohexyl)-5-((1-methylpiperidin-4-yl)oxy)-[2,3′-bipyridine]-4′,6′-diamine] |  |  |  |  |  |  |  |  |  |  | IC50 [1, 11]: 1.7 nM; IC50 [2, 12]: 1.4 nM; IC50 [3, 13]: 0.3 nM; IC50 [4, 14]: 9.3 nM; IC50 [5, 15]: 0.5 nM
3 | O=S(=O)(C1CC1)n1cc(-c2nccc(Nc3cc(N[C@H]4CC[C@@H](NCCF)CC4)c(-c4ccccn4)cn3)n2)cn1 [Example 36, N^6′-(2-(1-(Cyclopropylsulfonyl)-1H-pyrazol-4-yl)pyrimidin-4-yl)-N^4′-((1s,4s)-4-((2-fluoroethyl)amino)cyclohexyl)-[2,3′-bipyridine]-4′,6′-diamine] |  |  |  |  |  | 0.9 nM | 15.7 nM | 0.1 nM | 3080 nM | 0.2 nM | IC50 [1, 11]: 0.5 nM; IC50 [2, 12]: 1 nM; IC50 [3, 13]: 0.1 nM; IC50 [4, 14]: 5.8 nM; IC50 [5, 15]: 0.1 nM
4 | C[C@]1(O)CC[C@@H](Nc2cc(Nc3ccnc(-c4cnn(S(=O)(=O)C5CC5)c4)n3)ncc2-c2cnc(N3CCOCC3)cn2)CC1 [Example 44, (1s,4s)-4-((2-((2-(1-(Cyclopropylsulfonyl)-1H-pyrazol-4-yl)pyrimidin-4-yl)amino)-5-(5-morpholinopyrazin-2-yl)pyridin-4-yl)amino)-1-methylcyclohexan-1-ol] |  |  |  |  |  | 0.8 nM | 7.1 nM | 0.6 nM | > 10000 nM | 0.6 nM | 
5 | CN(C)C[C@H]1CC[C@@H](Nc2cc(Nc3ccnc(-c4cnn(S(=O)(=O)C5CC5)c4)n3)ncc2-c2cc(NC3CC(F)(F)C3)ccn2)CC1 [Example 216, N^6′-(2-(1-(Cyclopropylsulfonyl)-1H-pyrazol-4-yl)pyrimidin-4-yl)-N^4-(3,3-difluorocyclobutyl)-N^4′-((1s,4s)-4-((dimethylamino)methyl)cyclohexyl)-[2,3′-bipyridine]-4,4′,6′-triamine] | 0.8 nM | 0.3 nM | 0.8 nM | 0.8 nM | 1.2 nM |  |  |  |  |  | IC50 ([1]; IC50 del19/C797S, 100 μM ATP): 1.3 nM; IC50 ([2]; IC50 L858R/C797S, 100 μM ATP): 1.4 nM; IC50 [3, 21]: 0.7 nM; IC50 ([4]; IC50 WT, 100 μM ATP): 136 nM; IC50 [5, 22]: 1.2 nM
6 | COC(c1ccc(-c2cnc(Nc3ccnc(-c4cnn(S(=O)(=O)C5CC5)c4)n3)cc2NC2CCC(CO)CC2)nc1)C(F)(F)F (centres unmarked) [Example 261, ((1s,4s)-4-((6′-((2-(1-(Cyclopropylsulfonyl)-1H-pyrazol-4-yl)pyrimidin-4-yl)amino)-5-(2,2,2-trifluoro-1-methoxyethyl)-[2,3′-bipyridin]-4′-yl)amino)cyclohexyl)methanol] | 10.3 nM | 7.5 nM | 4.1 nM | 9.2 nM | 9.6 nM |  |  |  |  |  | 
7 | CN1CCC(Oc2ccc(-c3cnc(Nc4ccnc(-c5cnn(S(=O)(=O)C6CC6)c5)n4)cc3NC3CCN(CC(F)F)CC3)nc2)CC1 [Example 258, N^6′-(2-(1-(Cyclopropylsulfonyl)-1H-pyrazol-4-yl)pyrimidin-4-yl)-N^4′-(1-(2,2-difluoroethyl)piperidin-4-yl)-5-((1-methylpiperidin-4-yl)oxy)-[2,3′-bipyridine]-4′,6′-diamine] | 0.7 nM | 0.1 nM | 0.1 nM | 14.1 nM | 0.2 nM |  |  |  |  |  | 
8 | O=S(=O)(C1CC1)n1cc(-c2nccc(Nc3cc(N[C@H]4CC[C@@H](F)CC4)c(-c4cnc(OC5CCOCC5)cn4)cn3)n2)cn1 [Example 151, N^2-(2-(1-(Cyclopropylsulfonyl)-1H-pyrazol-4-yl)pyrimidin-4-yl)-N^4-((1s,4s)-4-fluorocyclohexyl)-5-(5-((tetrahydro-2H-pyran-4-yl)oxy)pyrazin-2-yl)pyridine-2,4-diamine] | 34 nM | 17.2 nM | 0.1 nM | 1910 nM | 0.8 nM |  |  |  |  |  | 
9 | O=S(=O)(C1CC1)n1cc(-c2nccc(Nc3cc(NC4CCC(F)(F)CC4)c(-c4ccc(N5CCC(F)(F)CC5)nn4)cn3)n2)cn1 [Example 268, N^2-(2-(1-(Cyclopropylsulfonyl)-1H-pyrazol-4-yl)pyrimidin-4-yl)-N^4-(4,4-difluorocyclohexyl)-5-(6-(4,4-difluoropiperidin-1-yl)pyridazin-3-yl)pyridine-2,4-diamine] | 762 nM | 1220 nM | 22.4 nM | 4770 nM | 28.9 nM |  |  |  |  |  | 

More lines, main results first:

Row | IC50 [1, 6] | IC50 [2, 7] | IC50 [3, 8] | IC50 [4, 9] | IC50 [5, 10] | IC50 [1, 16] | IC50 [2, 17] | IC50 [3, 18] | IC50 [4, 19] | IC50 [5, 20] | Compound | further results
10 |  |  |  |  |  | 0.4 nM | 0.2 nM | 0.3 nM | 61.1 nM | 0.6 nM | CC(C)N1CCN(Cc2ccc(-c3cnc(Nc4ccnc(-c5cnn(S(=O)(=O)C6CC6)c5)n4)cc3N[C@H]3CC[C@@](C)(O)CC3)nc2)CC1 [Example 34, (1s,4s)-4-((6′-((2-(1-(Cyclopropylsulfonyl)-1H-pyrazol-4-yl)pyrimidin-4-yl)amino)-5-((4-isopropylpiperazin-1-yl)methyl)-[2,3′-bipyridin]-4′-yl)amino)-1-methylcyclohexan-1-ol] | IC50 [1, 11]: 0.2 nM; IC50 [2, 12]: 0.1 nM; IC50 [3, 13]: 0.1 nM; IC50 [4, 14]: 0.5 nM; IC50 [5, 15]: 0.6 nM
11 |  |  |  |  |  | 0.4 nM | 1.8 nM | 0.2 nM | 3940 nM | 0.2 nM | C[C@]1(O)CC[C@@H](Nc2cc(Nc3ccnc(-c4cnn(S(=O)(=O)C5CC5)c4)n3)ncc2-c2cc(CN3CCOCC3)ccn2)CC1 [Example 61, (1s,4s)-4-((6′-((2-(1-(Cyclopropylsulfonyl)-1H-pyrazol-4-yl)pyrimidin-4-yl)amino)-4-(morpholinomethyl)-[2,3′-bipyridin]-4′-yl)amino)-1-methylcyclohexan-1-ol] | 
12 | 16.2 nM | 19.7 nM | 2.2 nM | 129 nM | 5.5 nM |  |  |  |  |  | C[C@]1(O)CC[C@@H](Nc2cc(Nc3ccnc(-c4cnn(S(=O)(=O)C5CC5)c4)n3)ncc2-c2ccc(C(F)(F)F)c(F)n2)CC1 [Example 181, (1s,4s)-4-((6′-((2-(1-(Cyclopropylsulfonyl)-1H-pyrazol-4-yl)pyrimidin-4-yl)amino)-6-fluoro-5-(trifluoromethyl)-[2,3′-bipyridin]-4′-yl)amino)-1-methylcyclohexan-1-ol] | IC50 ([1]; IC50 del19/C797S, 100 μM ATP): 41.5 nM; IC50 ([2]; IC50 L858R/C797S, 100 μM ATP): 157 nM; IC50 [3, 21]: 20.3 nM; IC50 ([4]; IC50 WT, 100 μM ATP): > 10000 nM; IC50 [5, 22]: 10 nM
13 |  |  |  |  |  | 0.4 nM | 2 nM | 0.1 nM | 2910 nM | 0.1 nM | CN(C)Cc1cccc(-c2cnc(Nc3ccnc(-c4cnn(S(=O)(=O)C5CC5)c4)n3)cc2N[C@H]2CC[C@@](C)(O)CC2)n1 [Example 30, (1s,4s)-4-((6′-((2-(1-(Cyclopropylsulfonyl)-1H-pyrazol-4-yl)pyrimidin-4-yl)amino)-6-((dimethylamino)methyl)-[2,3′-bipyridin]-4′-yl)amino)-1-methylcyclohexan-1-ol] | 
14 |  |  |  |  |  | 0.9 nM | 15.1 nM | 0.4 nM | 406 nM | 0.4 nM | COC1CN(c2ccc(-c3cnc(Nc4ccnc(-c5cnn(S(=O)(=O)C6CC6)c5)n4)cc3N[C@H]3CC[C@@](C)(O)CC3)nc2)C1 [Example 90, (1s,4s)-4-((6′-((2-(1-(Cyclopropylsulfonyl)-1H-pyrazol-4-yl)pyrimidin-4-yl)amino)-5-(3-methoxyazetidin-1-yl)-[2,3′-bipyridin]-4′-yl)amino)-1-methylcyclohexan-1-ol] | IC50 [1, 11]: 0.4 nM; IC50 [2, 12]: 0.4 nM; IC50 [3, 13]: 0.3 nM; IC50 [4, 14]: 0.4 nM; IC50 [5, 15]: 0.6 nM
